Results on 1 substance are retold here after patent US20220370463A1, “STABILIZED C-FMS INTRACELLULAR FRAGMENTS (FICD) PROMOTE OSTEOCLAST DIFFERENTIATION AND ARTHRITIC BONE EROSION” (New York Society for the Relief of the Ruptured and …, priority 2019, published 2022).

The experiment relates to FICD (mem, H-FICD, L-FICD). The experiment can be described thus: FICD in membrane, cytoplasmic and nuclear fractions of human OCPs, immunoblot. The experiment is classed as cell-based. As for the experimental part:
(a) Human CD14+ cells were cultured with M-CSF (20 ng/ml) for 8 hours to induce early signals and then DAPT (10uM) was added for 2 days. Protein expression of c-FMS, Na+K+ pump, Lamin B1 and α-tubulin, as determined by immunoblot. ME; membrane extracts, CE; cytoplasmic extracts, and NE; nuclear extracts. (b) Immunohistochemistry of DAPI and c-FMS [middle]. […] Scale: 200×. (c) Cells were starved for three hours and then stimulated with M-CSF for the indicated times. (d and e) Cells were treated with Imatinib (0.3 μM, d) or c-FMS blocking antibody (5 μg) prior to the addition of M-CSF. Protein expression of FICD was measured by immunoblot. Lamin B1 and α-tubulin were used as controls for nuclear and cytoplasmic fractions, respectively. (f) Human CD14+ cells were cultured with M-CSF (20 ng/ml) for 8 hours to induce early signals and then MDL 28170(5 uM). Immunoblot with anti c-FMS and Lamin B1 antibodies. (g and h) Calpain 1, 5, and 6 were knocked down with siRNAs. Cells were cultured with M-CSF for 12 hours. (g) Efficiency of knockdown of Calpain 1, 5, and 6. (h) Immunoblot of c-FMS and Lamin B1. All data are shown as mean±SEM. *,p<0.05 by two-tailed, unpaired t-test (g). Representative results from at least three independent experiments.
(A and B) Human CD14+ cells were cultured with M-CSF (20 ng/ml) for 8 hours to induce early signals and then (A) MDL 28170(0, 1, 2, 5 uM) or (B) PD150606 (0, 2, 5 uM) was added for 2 days. Immunoblot with anti c-FMS and α-tubulin antibodies in whole lysates(n=3). (C) Immunoblot of nuclear lysates with c-FMS and Lamin B1 antibodies. Cells were cultured with M-CSF for 12 hours, and then M-CSF was removed. Cells were subsequently treated with or without CaCl2 (10 mM) for an additional 24 hours. (D) Osteoclastogenesis assay. Human CD14+ cells were cultured with M-CSF, RANKL and MDL28170 for 4 days. […] Black scale bar is 100 μm. […] First two calpain cleavage sites in cytoplasmic domains of c-FMS were used for FICD constructs. (F) A schematic diagram of a FICD construct. Representative results from at least three independent experiments.
Whole cell extracts were prepared by lysis in buffer containing 1× Lamin sample buffer (Bio-rad) and 2-Mercaptoethanol (Sigma) or RIPA buffer (Sigma). The cell membrane-permeable protease inhibitor, Pefablock (1 mM), was added immediately prior to harvest cells. The membrane proteins were extracted with Mem-PER™ Plus Membrane Protein Extraction Kit (Thermorfisher scientific; 89842) according to manufacturer's instructions. To extracts of nucleus protein, cells were incubated in buffer A (10 mM Hepes, pH 7.9, 1.5 mM MgCl2, 10 mM KCl, 0.1 mM EDTA, 0.1 mM EGTA, proteinase inhibitor cocktail (Complete, Roche) and 1 mM DTT) for 15 min at 4° C. NP-40 was added to a final concentration of 0.5%. Nucleus was collected by centrifugation (5000 rpm, 5 min). The pellets were lysed by Bioruptor-ultrasonicator (UCD400, Diagenode) in buffer B (20 mM Hepes, pH 7.9, 0.4M NaCl, 10 mM KCl, 1 mM EDTA, 1 mM EGTA, 10% Glycerol, proteinase inhibitor cocktail and 1 mM DTT) and collected the supernatant by centrifugation (12,000 rpm, 10 min). The protein concentration of nuclear extracts was quantitated using the Bradford assay (Bio-Rad; 5000001). For immunoblot, proteins were separated on 7.5 or 10% SDS-PAGE gels, transferred to polyvinylidene difluoride membranes (PVDF, Millipore; ISEQ00010), and detected by antibodies as listed in the figure legends.

Where [1] appears, read: MDL 28170 5 uM after 8 hours M-CSF, nuclear extracts.

On to MDL28170, for which the “effect of calcium signaling on L-FICD processing” value (M-CSF removed, CaCl2 (10 mM) for 24 hours, nuclear lysates) is on record as “reversed”. Moreover, under setting [1], the “enrichment of L-FICD versus H-FICD in the nucleus” value is on record as “shifted the enrichment of L-FICD to H-FICD in the nucleus” and the “translocation of FICD into the nucleus” value was “did not interfere”.
